How the values were obtained:
Format in all cases: biochemical
SGK = target: T1, SGK (Homo sapiens, UniProt O00141, S422D); test: Protein kinase activity assay, SGK; conditions: Table I a; percentage of catalytic activity compared to DMSO; Crosstide substrate
T1 construct: made in house; host or cells: HEK293
T1 sequence (O00141 61-431 S422D limits assumed): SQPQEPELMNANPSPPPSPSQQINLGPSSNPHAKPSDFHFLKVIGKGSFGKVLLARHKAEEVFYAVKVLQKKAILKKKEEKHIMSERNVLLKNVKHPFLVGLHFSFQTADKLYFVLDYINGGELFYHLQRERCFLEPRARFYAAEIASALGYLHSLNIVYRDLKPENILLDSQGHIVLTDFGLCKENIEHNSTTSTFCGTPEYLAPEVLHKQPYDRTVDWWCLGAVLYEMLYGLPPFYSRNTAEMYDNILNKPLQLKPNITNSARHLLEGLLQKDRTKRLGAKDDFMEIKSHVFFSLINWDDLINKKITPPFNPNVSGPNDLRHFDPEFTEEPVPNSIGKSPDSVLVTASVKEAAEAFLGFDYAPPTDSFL
Experimental: (§1) For the expression and purification of protein kinases fused to GST, pEBG-2T derived plasmids were transfected into 8×14.5 cm dishes containing HEK293 cells using the PEI method ([…] and […]/14.5 cm dish). The cells were lysed after 48 h in a buffer containing 50 mM Tris-HCl pH 7.5, 1 mM EGTA, 1 mM EDTA, 1% (w/v) Triton X-100, 1 mM sodium orthovanadate, […], 5 mM sodium pyrophosphate, 0.27 M sucrose, 0.1% β-mercaptoethanol, and 1 tablet of protease inhibitor cocktail per 50 ml of buffer. Lysates were frozen in liquid nitrogen and kept at −80° C. until required. Purification involved incubation of the cleared lysate with glutathione sepharose, followed by 2 washes with 0.5 M NaCl in lysis buffer, 8 washes with a buffer containing 50 mM Tris-HCl, 0.1 mM EGTA and 0.1% β-mercaptoethanol (buffer A), and a last wash with buffer A supplemented with 0.26 M sucrose. […]
(§2) The protein kinase activity assays were performed essentially as previously described (Engel, M. et al. Embo J 25, 5469-80 (2006)). The assays were done in a 96-well format and 4 μl aliquots spotted on P81 phospho-cellulose papers (Whatman) using epMotion 5070 (Eppendorf), washed in 0.01% phosphoric acid, dried, and then exposed and analyzed using PhosphoImager technology (FLA-9000 Starion, Fujifilm). […]

PKCβ = target: T2, PKCβ (Homo sapiens, UniProt P05771); test: Protein kinase activity assay, PKCβ; conditions: Table I b; percentage of catalytic activity compared to DMSO; lipid activator mix, histone H1
T2 construct: purchased ProQinase
T2 sequence (P05771 whole entry, species assumed): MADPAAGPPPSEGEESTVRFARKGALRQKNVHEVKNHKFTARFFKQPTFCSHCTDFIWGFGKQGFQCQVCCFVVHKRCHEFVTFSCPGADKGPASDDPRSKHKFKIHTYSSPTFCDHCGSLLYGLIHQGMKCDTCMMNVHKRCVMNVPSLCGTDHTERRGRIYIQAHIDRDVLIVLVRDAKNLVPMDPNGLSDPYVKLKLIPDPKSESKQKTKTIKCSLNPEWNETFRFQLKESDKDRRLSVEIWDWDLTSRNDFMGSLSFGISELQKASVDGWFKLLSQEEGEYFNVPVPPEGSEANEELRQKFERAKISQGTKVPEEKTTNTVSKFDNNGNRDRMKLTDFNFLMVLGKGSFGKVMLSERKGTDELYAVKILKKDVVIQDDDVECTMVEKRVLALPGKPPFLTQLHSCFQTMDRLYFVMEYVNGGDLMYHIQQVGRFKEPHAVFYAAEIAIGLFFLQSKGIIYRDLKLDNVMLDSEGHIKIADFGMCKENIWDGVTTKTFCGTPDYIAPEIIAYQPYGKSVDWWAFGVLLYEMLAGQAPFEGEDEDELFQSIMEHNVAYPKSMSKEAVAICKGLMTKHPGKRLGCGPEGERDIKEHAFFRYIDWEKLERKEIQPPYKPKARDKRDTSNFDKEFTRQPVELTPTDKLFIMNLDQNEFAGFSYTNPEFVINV
Experimental: (§3) The protein kinase activity assays were performed essentially as previously described (Engel, M. et al. Embo J 25, 5469-80 (2006)). The assays were done in a 96-well format and 4 μl aliquots spotted on P81 phospho-cellulose papers (Whatman) using epMotion 5070 (Eppendorf), washed in 0.01% phosphoric acid, dried, and then exposed and analyzed using PhosphoImager technology (FLA-9000 Starion, Fujifilm). Atypical PKC (aPKC) activity assays were performed in a total volume of 20 μl containing 50 mM Tris-HCl pH 7.5, 0.05 mg/ml BSA, 0.1% (v/v) 2-mercaptoethanol, 10 mM MgCl2, 100 μM [γ^32P]ATP (5-50 cpm/pmol), 0.003% Brij, 30-50 ng of aPKC, and MBP (10 μM) or PSRtide (100 μM) as the substrate. After 15 min pre-incubation, the kinase reaction was started by addition of 6 μl of an ATP-Mg mix. When required, lipid activator (LA) phosphatidylserine (100 ng) or PKC lipid activator mix (1×) was included in the pre-incubation. Low basal activity and consistent activation of 1-592 PKCζ and 498 PKCζ by LA was obtained when the pre-incubation time was started by addition of the whole mix on the enzyme.
The substrates were T308tide (200 μM) for PDK1, Kemptide (100 μM) for PKA, and Crosstide (100 μM) for SGK, PKB, S6K, and PRK2. The activity assays for PKCα, β, θ, and δ were performed in the presence of PKC lipid activator mix (1×) using 3 μM of histone H1 as substrate. […]

PKCι = target: T3, PKCι (Homo sapiens, UniProt P41743); test: Protein kinase activity assay, PKCι; conditions: for Effect on PKCι activity: 50 μM; for Activity (%) Atypical PKCs PKCι: Table I b, percentage of catalytic activity compared to DMSO
T3 construct: made in house; host or cells: HEK293
T3 sequence (P41743 10-596 limits assumed): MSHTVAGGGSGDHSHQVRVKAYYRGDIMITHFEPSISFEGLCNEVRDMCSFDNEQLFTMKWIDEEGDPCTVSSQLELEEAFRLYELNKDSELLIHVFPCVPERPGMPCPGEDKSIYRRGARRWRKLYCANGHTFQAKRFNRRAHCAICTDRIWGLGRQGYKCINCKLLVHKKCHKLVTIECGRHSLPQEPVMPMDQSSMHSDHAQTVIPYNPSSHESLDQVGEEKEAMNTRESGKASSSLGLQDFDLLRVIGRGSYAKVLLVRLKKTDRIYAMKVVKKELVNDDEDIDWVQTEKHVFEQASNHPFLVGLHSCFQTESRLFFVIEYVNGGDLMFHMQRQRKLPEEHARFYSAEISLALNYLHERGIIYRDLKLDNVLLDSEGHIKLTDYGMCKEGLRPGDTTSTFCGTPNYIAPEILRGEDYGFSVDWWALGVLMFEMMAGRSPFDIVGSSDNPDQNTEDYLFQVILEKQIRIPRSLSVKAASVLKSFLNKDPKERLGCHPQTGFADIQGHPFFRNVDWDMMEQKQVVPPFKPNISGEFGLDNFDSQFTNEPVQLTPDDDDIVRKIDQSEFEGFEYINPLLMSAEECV
Experimental: For the expression and purification of protein kinases fused to GST, pEBG-2T derived plasmids were transfected into 8×14.5 cm dishes containing HEK293 cells using the PEI method ([…] and […]/14.5 cm dish). The cells were lysed after 48 h in a buffer containing 50 mM Tris-HCl pH 7.5, 1 mM EGTA, 1 mM EDTA, 1% (w/v) Triton X-100, 1 mM sodium orthovanadate, […], 5 mM sodium pyrophosphate, 0.27 M sucrose, 0.1% β-mercaptoethanol, and 1 tablet of protease inhibitor cocktail per 50 ml of buffer. Lysates were frozen in liquid nitrogen and kept at −80° C. until required. Purification involved incubation of the cleared lysate with glutathione sepharose, followed by 2 washes with 0.5 M NaCl in lysis buffer, 8 washes with a buffer containing 50 mM Tris-HCl, 0.1 mM EGTA and 0.1% β-mercaptoethanol (buffer A), and a last wash with buffer A supplemented with 0.26 M sucrose. Elution was performed with this last buffer containing 20 mM glutathione and the GST-fusion protein was cleared from resin by filtration through a “SigmaPrep” spin column (Sigma). GST-fusion proteins were aliquoted, snap frozen in liquid nitrogen and kept at −80° C. until use. Purity at this stage was above 85% as estimated by SDS-PAGE and staining with Coomassie Brilliant Blue R250. PRK2 was expressed from pEBG-2T-PRK2 (Balendran, A. et al. J Biol Chem 275, 20806-13. (2000)), SGK1 from pEBG-2T-SGK1-ΔN[Ser422Asp], PKBα from pEBG-2T-PKBα[Ser473Asp] (Biondi et al., D. R. Embo J 20, 4380-90. (2001)), PKCl from pEBG-2T-PKCl and PKCζ from pEBG-2T-PKCζ. PDK1 and S6K1 were expressed in Sf9 insect cells using a baculovirus expression system from pFastBac-PDK1 and pFastBac-56K1-T2[Thr412Glu].
as §3, with “enzyme. […]” for “enzyme.”

PRK2 = target: T4, PRK2 (Homo sapiens, UniProt Q16513); test: Protein kinase activity assay, PRK2; conditions: Table I a; percentage of catalytic activity compared to DMSO; Crosstide substrate
T4 construct: made in house; host or cells: HEK293
T4 sequence (Q16513 whole entry): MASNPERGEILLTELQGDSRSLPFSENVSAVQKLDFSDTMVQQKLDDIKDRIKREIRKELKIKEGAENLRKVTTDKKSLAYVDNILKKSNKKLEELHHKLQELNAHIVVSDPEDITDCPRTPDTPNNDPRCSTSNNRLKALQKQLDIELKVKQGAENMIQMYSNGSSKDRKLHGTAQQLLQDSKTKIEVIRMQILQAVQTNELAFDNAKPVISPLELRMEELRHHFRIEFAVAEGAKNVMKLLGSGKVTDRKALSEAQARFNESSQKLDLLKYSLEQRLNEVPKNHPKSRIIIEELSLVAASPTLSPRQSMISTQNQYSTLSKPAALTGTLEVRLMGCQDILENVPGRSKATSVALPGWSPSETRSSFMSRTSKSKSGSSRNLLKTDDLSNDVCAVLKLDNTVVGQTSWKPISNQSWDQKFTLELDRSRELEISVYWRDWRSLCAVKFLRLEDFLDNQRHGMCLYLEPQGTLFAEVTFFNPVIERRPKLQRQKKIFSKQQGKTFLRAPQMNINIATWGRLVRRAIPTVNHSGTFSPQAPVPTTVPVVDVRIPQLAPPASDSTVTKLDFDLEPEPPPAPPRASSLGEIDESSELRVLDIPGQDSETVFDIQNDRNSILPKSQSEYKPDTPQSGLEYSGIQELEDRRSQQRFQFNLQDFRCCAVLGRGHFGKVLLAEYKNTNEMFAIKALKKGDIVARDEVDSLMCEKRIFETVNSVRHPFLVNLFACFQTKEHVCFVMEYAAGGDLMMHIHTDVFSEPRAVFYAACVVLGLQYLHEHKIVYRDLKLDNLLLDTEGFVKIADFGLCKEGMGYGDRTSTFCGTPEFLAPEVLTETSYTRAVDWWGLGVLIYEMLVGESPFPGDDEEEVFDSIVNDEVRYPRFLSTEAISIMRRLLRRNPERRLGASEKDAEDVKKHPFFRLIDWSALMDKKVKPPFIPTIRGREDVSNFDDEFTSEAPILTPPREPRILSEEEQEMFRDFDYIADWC
Experimental: as §1, §2

Compound | Activity (%) SGK (SGK) [%] | Activity (%) Classical PKCs PKCβ (PKCβ) [%] | Effect on PKCι activity (PKCι) | Activity (%) Atypical PKCs PKCι (PKCι) [%] | Activity (%) PRK2 (PRK2) [%]
Cl.O=C(O)CC(Cc1nc2cc(-c3ccccc3)ccc2[nH]1)c1ccc(Cl)cc1 (stereo not shown) [PS168] | 93 | 148 | not | 108 | 103
Cl.O=C(O)CC(Cc1nc2c(Cl)cc(Cl)cc2[nH]1)c1ccc(Cl)cc1 (stereo not shown) [PS171] | 97 | 138 | not | 106 | 97
